Assays:
[1] = target: T1, NTHi Nuc (Haemophilus influenzae, UniProt Q57519); assay: FRET nuclease assay, Cy3/BHQ2 single-stranded 30-mer DNA; format: biochemical; details: competitive (stated); pdTp 0.015 and 0.03 nM; enzyme 0.035 nM; 2 µM FRET substrate; 26 °C
T1 construct: gene HI_1296; N-terminal 6xHis tag (pET151/D-TOPO) cleaved with TEV protease; E. coli BL21*(DE3)

[2] = target: T1, NTHi Nuc; assay: thermal unfolding by dynamic light scattering; format: binding; details: pH 7; excess pdTp; onset temperature with ligand, not a shift; ramp 1.0 °C/min
From the text: thermal unfolding by dynamic light scattering on NTHi Nuc

T1 sequence (Q57519 21-178): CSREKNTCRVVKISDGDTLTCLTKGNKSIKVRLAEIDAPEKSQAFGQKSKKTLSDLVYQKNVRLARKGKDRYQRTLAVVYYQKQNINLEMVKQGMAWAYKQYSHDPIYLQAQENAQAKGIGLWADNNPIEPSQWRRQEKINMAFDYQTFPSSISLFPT

Q: How did the “FRET nuclease assay, Cy3/BHQ2 single-stranded 30-mer DNA” value [1] turn out when `Cc1cn([C@H]2C[C@H](OP(=O)(O)O)[C@@H](COP(=O)(O)O)O2)c(=O)[nH]c1=O` [thymidine 3,5-bisphosphate] was run?
A: The value was “Half and equimolar concentrations of pdTp impacted initial rates of endonuclease activity”.

Q: And the Tonset [2]?
A: The Tonset was 48.1 ± 1.45 °C.
